Assay results as given in ChEMBL document CHEMBL3727358, “Inhibitors of inducible form of 6-phosphofructose-2-kinase” (2014).

biological target: 6-phosphofructo-2-kinase/fructose-2,6-bisphosphatase 3 (Homo sapiens, UniProt Q16875); test: Inhibition of iPFK2 (unknown origin) assessed as reduction in enzyme-mediated fructose-6-phosphate phosphorylation by measuring ATP consumption incubated for 3 hrs by luciferase-luciferin-coupled chemiluminescence assay
Sequence (Q16875 whole entry): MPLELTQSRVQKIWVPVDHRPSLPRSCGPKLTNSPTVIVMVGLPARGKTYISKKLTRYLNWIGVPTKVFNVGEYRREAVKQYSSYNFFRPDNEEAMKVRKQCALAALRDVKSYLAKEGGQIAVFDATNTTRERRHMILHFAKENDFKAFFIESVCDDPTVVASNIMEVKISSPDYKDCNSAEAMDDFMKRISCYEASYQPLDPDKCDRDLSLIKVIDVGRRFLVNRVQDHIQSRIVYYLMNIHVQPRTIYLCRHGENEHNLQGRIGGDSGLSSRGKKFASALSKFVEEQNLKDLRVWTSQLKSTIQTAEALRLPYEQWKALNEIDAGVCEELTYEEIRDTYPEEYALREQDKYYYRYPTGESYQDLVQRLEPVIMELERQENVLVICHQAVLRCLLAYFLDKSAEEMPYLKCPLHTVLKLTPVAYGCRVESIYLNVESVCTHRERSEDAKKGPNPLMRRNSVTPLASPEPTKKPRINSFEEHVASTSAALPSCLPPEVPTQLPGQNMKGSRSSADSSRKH

| IC50 [nM] | SMILES |
| --- | --- |
| 500 | COc1cccc(CNc2cc(-c3ccc4occ(C)c4c3)nc(C)n2)c1 |
| > 1000 | CCc1coc2ccc(-c3cc(N[C@@H](C)c4cccc(OC)c4)nc(C)n3)cc12 |
| > 1000 | Cc1nc(NCCCN(C)c2ccccc2)cc(-c2ccc3ncsc3c2)n1 |
| > 1000 | COc1cccc(-c2cc(NC(C)c3cccc(S(N)(=O)=O)c3)nc(C)n2)c1 (stereo not drawn) |
| > 1000 | COc1cccc([C@H](C)Nc2cc(-c3cccc(OC(F)(F)F)c3)nc(C)n2)c1 |
| 500 | Cc1nc(NC(C)c2ccnc(Cl)c2)cc(-c2ccc3ncsc3c2)n1 (stereo not drawn) |
| 500 | Cc1nc(N[C@@H]2CCCc3ccccc32)cc(-c2ccc(F)cc2)n1 |
| 500 | CNC(=O)COc1cccc(C(C)Nc2cc(-c3cccc(OC)c3)nc(C)n2)c1 (stereo not drawn) |
| 500 | Cc1nc(NC(C)c2cccc(OCc3noc(C)n3)c2)cc(-c2ccc3ncsc3c2)n1 (stereo not drawn) |
| 500 | COc1cccc(-c2cc(NC(C)c3cccc(S(=O)(=O)NCC#N)c3)nc(C)n2)c1 (stereo not drawn) |
| > 1000 | Cc1nc(N[C@@H]2CCCc3ccccc32)cc(-c2cccc(C=O)c2)n1 |
| 500 | CCOC(=O)CCCOc1cccc(C(C)Nc2cc(-c3ccc4ccn(C)c4c3)nc(C)n2)c1 (stereo not drawn) |
| 500 | Cc1ccc([C@H](C)Nc2cc(-c3ccc4ccn(C)c4c3)nc(C)n2)cc1 |
| 500 | CNC(=O)COc1cccc(C(C)Nc2cc(-c3ccc4c(c3)OCO4)nc(C)n2)c1 (stereo not drawn) |
| > 1000 | Cc1nc(NC[C@@H](C)c2ccccc2)cc(-c2ccc3ncsc3c2)n1 |
| > 1000 | CCc1cccc(-c2cc(N[C@@H]3CCCc4ccccc43)nc(C)n2)c1 |
| > 1000 | Cc1nc(N[C@@H]2CCCc3ccccc32)cc(-c2cccc(C(N)=O)c2)n1 |
| > 1000 | COc1cccc(-c2cc(NC(C)c3cccc(Br)c3)nc(C)n2)c1 (stereo not drawn) |
| > 1000 | CCOc1cccc(-c2cc(N[C@@H]3CCCc4ccccc43)nc(C)n2)c1 |
| > 1000 | COc1ccc2c(c1)C(Nc1cc(-c3ccc4ncsc4c3)nc(C)n1)CCC2 (stereo not drawn) |
| > 1000 | Cc1nc(N[C@@H]2CCCc3ccccc32)cc(-c2ccc(OC(F)(F)F)cc2)n1 |
| 500 | Cc1nc(NC2Cc3ccccc3C2)cc(-c2ccc3ncsc3c2)n1 |
| 500 | CCCCC(CC)CNc1cc(-c2ccc3ncsc3c2)nc(C)n1 (stereo not drawn) |
| > 1000 | COc1cccc(-c2cc(NC(C)c3cccc(S(=O)(=O)N(CC#N)C(=O)OC(C)(C)C)c3)nc(C)n2)c1 (stereo not drawn) |
| 500 | C#CCNS(=O)(=O)c1cccc(C(C)Nc2cc(-c3ccc4ncsc4c3)nc(C)n2)c1 (stereo not drawn) |
| > 1000 | Cc1nc(NCCc2ccncc2)cc(-c2ccc3ncsc3c2)n1 |

| IC50 [nM] | SMILES |
| --- | --- |
| > 1000 | COc1cccc(-c2cc(NC(C)c3cccc(O)c3)nc(C)n2)c1 (stereo not drawn) |
| > 1000 | Cc1nc(N[C@@H](C)c2ccc(Cl)cc2)cc(-c2ccc3ccn(C)c3c2)n1 |
| > 1000 | Cc1nc(N[C@@H]2CCCc3ccccc32)cc(-c2cccnc2)n1 |
| 500 | CNC(=O)COc1cccc(C(C)Nc2cc(-c3cccc(OC)c3Cl)nc(C)n2)c1 (stereo not drawn) |
| > 1000 | CCOC(=O)CCCOc1cccc(C(C)Nc2cc(-c3ccc4ncsc4c3)nc(C)n2)c1 (stereo not drawn) |
| > 1000 | Cc1nc(NCc2cc(-c3ccccc3)no2)cc(-c2ccc3ncsc3c2)n1 |
| 500 | Cc1ccc([C@H](C)Nc2cc(-c3ccc4occ(C)c4c3)nc(C)n2)cc1 |
| 500 | Cc1nc(NC(C)c2cccc(C#N)c2)cc(-c2ccc3ncsc3c2)n1 (stereo not drawn) |
| > 1000 | COc1cccc([C@H](C)Nc2cc(-c3ccnc(C)c3)nc(C)n2)c1 |
| > 1000 | CNC(=O)c1cc(-c2cc(N[C@@H]3CCCc4ccccc43)nc(C)n2)ccc1Cl |
| > 1000 | Cc1nc(NCCc2c[nH]cn2)cc(-c2ccc3ncsc3c2)n1 |
| > 1000 | Cc1nc(N[C@@H]2CCCc3ccccc32)cc(-c2ccncc2)n1 |
| > 1000 | Cc1nc(N[C@@H]2CCCc3ccccc32)cc(-c2ccc(N(C)C)cc2)n1 |
| 500 | Cc1nc(N[C@H](C)c2cccc(-c3cnn(C)c3)c2)cc(-c2ccc3occ(C)c3c2)n1 |
| > 1000 | CCc1coc2ccc(-c3cc(NC(C)c4cccc(O)c4)nc(C)n3)cc12 (stereo not drawn) |
| > 1000 | Cc1nc(NCC2CCCN(C(=O)OC(C)(C)C)C2)cc(-c2ccc3ncsc3c2)n1 (stereo not drawn) |
| > 1000 | Cc1nc(NC(C)c2cccc(-c3noc(C)n3)c2)cc(-c2ccc3ncsc3c2)n1 (stereo not drawn) |
| 500 | Cc1nc(NC(C)c2cccc(O)c2)cc(-c2ccc3ncsc3c2)n1 (stereo not drawn) |
| 500 | Cc1nc(NC(C)c2cccc(-c3cnn(C)c3)c2)cc(-c2ccc3[nH]ccc3c2)n1 (stereo not drawn) |
| > 1000 | Cc1nc(NC[C@@H]2CCCN(C(=O)OC(C)(C)C)C2)cc(-c2ccc3ncsc3c2)n1 |
| > 1000 | COc1cccc([C@H](C)Nc2cc(N[C@@H]3CCCc4ccccc43)nc(C)n2)c1 |
| > 1000 | Cc1nc(N[C@@H]2CCCc3ccccc32)cc(-c2cccc(CO)c2)n1 |
| > 1000 | Cc1nc(N[C@@H]2CCCc3ccccc32)cc(-c2ccc3c(c2)OCCN3C)n1 |
| > 1000 | CC(=O)c1cccc(-c2cc(N[C@@H]3CCCc4ccccc43)nc(C)n2)c1 |
| > 1000 | COc1cccc(C(C)Nc2cc(-c3ccc4occ(C)c4c3)nc(C)n2)c1F (stereo not drawn) |
| > 1000 | COC(=O)CNc1cccc(C(C)Nc2cc(-c3cccc(OC)c3)nc(C)n2)c1 (stereo not drawn) |

| IC50 [nM] | SMILES |
| --- | --- |
| 500 | COc1cccc([C@H](C)Nc2cc(-c3cccc(OC)c3F)nc(C)n2)c1 |
| 500 | COc1cccc([C@H](C)Nc2cc(-c3cccc(C)c3)nc(C)n2)c1 |
| > 1000 | COC(=O)CNS(=O)(=O)c1cccc(C(C)Nc2cc(-c3cccc(OC)c3)nc(C)n2)c1 (stereo not drawn) |
| > 1000 | COc1cccc([C@H](C)Nc2cc(-c3ccc4c(ccn4C)c3)nc(C)n2)c1 |
| 500 | Cc1nc(N[C@@H]2CCCc3ccccc32)cc(-c2ccc3ccccc3c2)n1 |
| > 1000 | Cc1nc(N[C@@H]2CCCc3ccccc32)cc(-c2cccc(N)c2)n1 |
| 500 | COc1cccc(-c2cc(NC(C)c3cccc(OCC#N)c3)nc(C)n2)c1 (stereo not drawn) |
| > 1000 | CCn1ccc2ccc(-c3cc(N[C@@H](C)c4cccc(OC)c4)nc(C)n3)cc21 |
| > 1000 | COc1cccc([C@H](C)Nc2cc(-c3ccncc3)nc(C)n2)c1 |
| 500 | Cc1cc(COc2cccc(C(C)Nc3cc(-c4cc5ccccc5n4C)nc(C)n3)c2)n(C)n1 (stereo not drawn) |
| > 1000 | Cc1nc(N[C@@H]2CCCc3ccccc32)cc(-c2ccccc2F)n1 |
| 500 | Cc1cccc(-c2cc(N[C@@H]3CCCc4ccccc43)nc(C)n2)c1 |
| > 1000 | Cc1nc(N[C@@H]2CCCc3ccccc32)cc(-c2ccccc2Cl)n1 |
| 500 | COc1ccc2c(c1)CCCC2Nc1cc(-c2ccc3ncsc3c2)nc(C)n1 (stereo not drawn) |
| > 1000 | COc1cccc([C@H](C)Nc2cc(-c3cccnc3)nc(C)n2)c1 |
| > 1000 | COc1cccc2c1CCCC2Nc1cc(-c2ccc3ncsc3c2)nc(C)n1 (stereo not drawn) |
| 500 | Cc1nc(NC(C)c2cccnc2)cc(-c2ccc3ncsc3c2)n1 (stereo not drawn) |
| 500 | COC(=O)c1cc(-c2cc(N[C@@H]3CCCc4ccccc43)nc(C)n2)ccc1Cl |
| > 1000 | COCCn1ccc2ccc(-c3cc(N[C@@H]4CCCc5ccccc54)nc(C)n3)cc21 |
| 500 | COc1cc(-c2cc(NC(C)c3cccc(OCC(N)=O)c3)nc(C)n2)ccc1C (stereo not drawn) |
| 500 | Cc1nc(NC(C)c2cccc(OCCCC(=O)O)c2)cc(-c2ccc3ncsc3c2)n1 (stereo not drawn) |
| 500 | Cc1nc(NC(C)c2cccc(OCC(=O)O)c2)cc(-c2ccc3ccn(C)c3c2)n1 (stereo not drawn) |
| 500 | CCOC(=O)CNC(=O)COc1cccc(C(C)Nc2cc(-c3ccc4ccn(C)c4c3)nc(C)n2)c1 (stereo not drawn) |
| 500 | Cc1cccc(-c2cc(NC(C)c3cccc(-c4cnn(C)c4)c3)nc(C)n2)c1 (stereo not drawn) |
| > 1000 | CNC(=O)CNc1cc(-c2cc(N[C@@H]3CCCc4ccccc43)nc(C)n2)ccc1Cl |
| > 1000 | CC(C)CCC(C)NC1C=C(c2ccc3ncsc3c2)N=CN1C (stereo not drawn) |

| IC50 [nM] | SMILES |
| --- | --- |
| > 1000 | Cc1nc(N[C@@H]2CCCc3ccccc32)cc(-c2cn[nH]c2)n1 |
| 500 | COc1cccc([C@H](C)Nc2cc(-c3ccc(C)c(OC)c3)nc(C)n2)c1 |
| 500 | Cc1nc(NC(C)c2cccc(OCC(=O)N3CCOCC3)c2)cc(-c2ccc3ncsc3c2)n1 (stereo not drawn) |
| > 1000 | COC(=O)COc1cccc(C(C)Nc2cc(-c3cccc(OC)c3)nc(C)n2)c1 (stereo not drawn) |
| 500 | Cc1nc(N[C@@H]2CCCc3ccccc32)cc(-c2cccc(O)c2)n1 |
| > 1000 | Cc1nc(NCCCC(C)(C)CO)cc(-c2ccc3ncsc3c2)n1 |
| 500 | COc1cc(-c2cc(NC(C)c3cccc(OCc4ccn(C)n4)c3)nc(C)n2)ccc1C (stereo not drawn) |
| 500 | COc1cccc(-c2cc(N[C@@H]3CCCc4ccccc43)nc(C)n2)c1Cl |
| 500 | Cc1nc(NC(C)c2cccc(OCc3ccn[nH]3)c2)cc(-c2ccc3ncsc3c2)n1 (stereo not drawn) |
| > 1000 | Cc1nc(N[C@@H]2CCCc3ccccc32)cc(-c2ccc(N)cc2)n1 |
| > 1000 | COc1ccc(Cl)c(-c2cc(N[C@@H]3CCCc4ccccc43)nc(C)n2)c1 |
| > 1000 | Cc1ccc2c(c1)C(Nc1cc(-c3ccc4ncsc4c3)nc(C)n1)CCO2 (stereo not drawn) |
| > 1000 | Cc1nc(N[C@H]2CCOc3ccccc32)cc(-c2ccc3ncsc3c2)n1 |
| > 1000 | Cc1nc(NCc2cccc(-n3cccc3)c2)cc(-c2ccc3ncsc3c2)n1 |
| 500 | Cc1nc(NC(C)c2cccc(OC(C)(C)C(N)=O)c2)cc(-c2ccc3ncsc3c2)n1 (stereo not drawn) |
| > 1000 | Cc1nc(N[C@@H]2CCCc3ccccc32)cc(-c2cncnc2)n1 |
| > 1000 | CCc1coc2ccc(-c3cc(NC(C)c4cccc(OCc5cc(C)nn5C)c4)nc(C)n3)cc12 (stereo not drawn) |
| 500 | COc1cccc(-c2cc(NC3CCc4ccccc43)nc(C)n2)c1Cl (stereo not drawn) |
| 500 | Cc1nc(NC(C)c2cccc(C(=N)N)c2)cc(-c2ccc3ncsc3c2)n1 (stereo not drawn) |
| 500 | COc1cccc([C@H](C)Nc2cc(-c3cccc(F)c3)nc(C)n2)c1 |
| > 1000 | COc1cccc(-c2cc(N[C@@H](C)c3cccc(C(F)(F)F)c3)nc(C)n2)c1 |
| > 1000 | Cc1cc(C)c2c(c1)C(Nc1cc(-c3ccc4ncsc4c3)nc(C)n1)CCC2 (stereo not drawn) |
| > 1000 | Cc1nc(NC(C)c2ccc(F)c(OCc3ccnn3C)c2)cc(-c2ccc3ncsc3c2)n1 (stereo not drawn) |
| 500 | COc1cccc(-c2cc(NC(C)c3cccc(Br)c3)nc(C)n2)c1Cl (stereo not drawn) |
| > 1000 | COc1ccc(F)c(-c2cc(N[C@@H]3CCCc4ccccc43)nc(C)n2)c1 |
